# From patent US20230174523A1, “BENZENESULFONAMIDE DERIVATIVES AS TRAP1 MODULATORS AND USES THEREOF” (Amathus Therapeutics, Inc., priority 2020, published 2023)
# Target: T1, TRAP1 enzyme (Homo sapiens, UniProt Q12931)
# T1 sequence (Q12931 60-704): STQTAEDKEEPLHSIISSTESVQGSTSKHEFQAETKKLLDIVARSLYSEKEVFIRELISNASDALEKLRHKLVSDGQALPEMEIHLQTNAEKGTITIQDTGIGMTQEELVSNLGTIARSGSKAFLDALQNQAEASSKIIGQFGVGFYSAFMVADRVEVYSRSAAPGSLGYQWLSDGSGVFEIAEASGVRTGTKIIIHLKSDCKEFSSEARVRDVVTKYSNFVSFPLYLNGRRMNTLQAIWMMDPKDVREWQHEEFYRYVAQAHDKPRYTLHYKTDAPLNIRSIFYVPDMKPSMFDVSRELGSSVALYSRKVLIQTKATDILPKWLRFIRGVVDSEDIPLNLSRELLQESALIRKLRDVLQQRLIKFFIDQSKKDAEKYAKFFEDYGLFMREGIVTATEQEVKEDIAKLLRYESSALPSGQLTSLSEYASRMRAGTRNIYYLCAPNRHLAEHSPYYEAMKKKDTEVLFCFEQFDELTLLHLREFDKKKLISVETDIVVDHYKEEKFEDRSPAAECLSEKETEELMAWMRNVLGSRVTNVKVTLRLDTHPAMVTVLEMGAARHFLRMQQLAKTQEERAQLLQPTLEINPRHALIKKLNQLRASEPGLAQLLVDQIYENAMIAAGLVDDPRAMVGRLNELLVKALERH
# Assay: ADP Glo assay of TRAP1 ATPase activity
# Assay type: biochemical
# Conditions: for EC50: TRAP1 ATPase activation, 150 nM Trap1, 20 μM ATP, geometric mean, read-out: ADP GLO DRC: GeoMean EC50; for Emax: read-out: ADP GLO DRC: Mean Emax
# Protocol: Potency of test compounds to modulate the ATPase activity of TRAP1 enzyme was evaluated using ADP Glo assay. The assay is based on quantification of the ADP generated from ATP in the ATPase reaction. The assay is performed in two steps: first, after the ATPase reaction, an equal volume of ADP-Glo™ Reagent is added to terminate the ATPase reaction and deplete the remaining ATP. Second, the Kinase Detection Reagent is added to simultaneously convert ADP to ATP and allow the newly synthesized ATP to be measured using a luciferase/luciferin reaction.
# All the assays were carried out in a 384-well Proxiplate. The buffer used was 25 mM Pipes pH-7.5, 40 mM KCl, 0.05 mM MgCl2, 0.025% BSA, 0.316 mM EGTA, 0.003% Empigen, 0.01% Igepal. 150 nM Trap1 enzyme was incubated with various concentrations of the test compound (0.79 μM-100 μM) at 37° C. for 30 mins (except in blank wells). 20 μM ATP was added to each well to start the reaction. The plate was spun for 1 min at 1200 rpm and then incubated at 37° C. for 60 mins. 5 μl of ADP Glo reagent was added to all the wells and spun the plate for 1 min at 1200 rpm and kept it on a shaker at ambient temperature for 60 mins. 10 μl of kinase detection mix was added to all the wells and the plate was read for Luminescence at 495 nm. The amount of ADP released was estimated from ATP/ADP standard curve generated at the same experimental conditions. Emax (Maximal percent activation) and EC50 (concentration for half maximal activation) were estimated by fitting the dose response data to a sigmoidal curve fitting equation using Graphpad Prism software V. 8.
SMILES,EC50 [µM],Emax [%]
CCn1nc(C(C)C)cc1C(=O)Nc1ccc(OC)c(S(=O)(=O)Nc2c(C)cccc2C)c1 [Compound 1093],< 10,200 to 300
COc1ccc(NC(=O)c2cccc(C(=O)N(C)C)c2)cc1S(=O)(=O)Nc1c(C)cccc1C [Compound 1095],20 to 100,160 to 199
COc1ccc(NC(=O)c2cccnc2-c2cc(F)cc(F)c2)cc1S(=O)(=O)Nc1c(C)cccc1C [Compound 1096],10 to 20,123 to 159
COc1ccc(NC(=O)c2ncccc2-c2ccccc2)cc1S(=O)(=O)Nc1c(C)cccc1C [Compound 1098],10 to 20,200 to 300
COc1ccc(NC(=O)c2cn(C(C)C)cc2C(F)(F)F)cc1S(=O)(=O)Nc1c(C)cccc1C [Compound 1103],< 10,160 to 199
COc1ccc(NC(=O)c2ccnn2C(C)C)cc1S(=O)(=O)Nc1c(C)cccc1C [Compound 1104],10 to 20,200 to 300
COc1ccc(NC(=O)c2cnn(-c3cccnc3)c2)cc1S(=O)(=O)Nc1c(C)cccc1C [Compound 1106],10 to 20,200 to 300
COc1ccc(NC(=O)c2nn(C(C)C)c3ccccc23)cc1S(=O)(=O)Nc1c(C)cccc1C [Compound 1109],< 10,123 to 159
COc1ccc(NC(=O)c2cnn(-c3ccc(Cl)cc3)c2C)cc1S(=O)(=O)Nc1c(C)cccc1C [Compound 1110],< 10,160 to 199
COc1ccc(NC(=O)c2c(C(F)(F)F)coc2C)cc1S(=O)(=O)Nc1c(C)cccc1C [Compound 1111],10 to 20,160 to 199
COc1ccc(NC(=O)c2noc3c2CCCC3)cc1S(=O)(=O)Nc1c(C)cccc1C [Compound 1114],10 to 20,200 to 300
CCOc1cc(OCC)cc(C(=O)Nc2ccc(OC)c(S(=O)(=O)Nc3c(C)cccc3C)c2)c1 [Compound 1117],< 10,123 to 159
COc1ccc(NC(=O)c2ccc(S(=O)(=O)N(C)C)cc2)cc1S(=O)(=O)Nc1c(C)cccc1C [Compound 1120],20 to 100,160 to 199
COc1ccc(NC(=O)c2ccc3c(c2)CCCO3)cc1S(=O)(=O)Nc1c(C)cccc1C [Compound 1121],< 10,160 to 199
COc1ccc(NC(=O)c2ccoc2C(F)(F)F)cc1S(=O)(=O)Nc1c(C)cccc1C [Compound 1122],20 to 100,160 to 199
COc1ccc(NC(=O)c2cccc(N3CCCC3=O)c2)cc1S(=O)(=O)Nc1c(C)cccc1C [Compound 1123],10 to 20,200 to 300

SMILES,EC50 [µM],Emax [%]
COc1ccc(NC(=O)c2ccc3c(=O)n(C)cnc3c2)cc1S(=O)(=O)Nc1c(C)cccc1C [Compound 1124],10 to 20,200 to 300
COc1ccc(NC(=O)c2cccc(-n3cncn3)c2)cc1S(=O)(=O)Nc1c(C)cccc1C [Compound 1126],10 to 20,160 to 199
COc1ccc(NC(=O)c2ncc(OC(F)F)cc2Cl)cc1S(=O)(=O)Nc1c(C)cccc1C [Compound 1127],20 to 100,123 to 159
COc1ccc(NC(=O)c2cc(C#N)ccc2Br)cc1S(=O)(=O)Nc1c(C)cccc1C [Compound 1141],20 to 100,160 to 199
COc1ccc(NC(=O)c2ccc(-c3ccc(F)cc3)cc2F)cc1S(=O)(=O)Nc1c(C)cccc1C [Compound 1142],< 10,123 to 159
COc1ccc(NC(=O)c2csc3c2CCCC3)cc1S(=O)(=O)Nc1c(C)cccc1C [Compound 1144],< 10,160 to 199
CCOc1c(F)c(F)cc(C(=O)Nc2ccc(OC)c(S(=O)(=O)Nc3c(C)cccc3C)c2)c1F [Compound 1145],< 10,123 to 159
COc1ccc(NC(=O)c2ccc3c(c2)n(C)c(=O)n3C)cc1S(=O)(=O)Nc1c(C)cccc1C [Compound 1146],< 10,200 to 300
COc1ccc(NC(=O)c2cnn3cccnc23)cc1S(=O)(=O)Nc1c(C)cccc1C [Compound 1147],20 to 100,200 to 300
COc1ccc(NC(=O)c2cc(C)n(C(F)F)n2)cc1S(=O)(=O)Nc1c(C)cccc1C [Compound 1149],10 to 20,123 to 159
COc1ccc(NC(=O)c2c(C(F)(F)F)ccnc2C)cc1S(=O)(=O)Nc1c(C)cccc1C [Compound 1153],20 to 100,123 to 159
COc1ccc(NC(=O)c2cccc(OC3CCOCC3)n2)cc1S(=O)(=O)Nc1c(C)cccc1C [Compound 1154],20 to 100,200 to 300
COc1ccc(NC(=O)c2cccnc2SCc2ccccc2)cc1S(=O)(=O)Nc1c(C)cccc1C [Compound 1157],< 10,123 to 159
COc1ccc(NC(=O)c2cnoc2C2CC2)cc1S(=O)(=O)Nc1c(C)cccc1C [Compound 1160],20 to 100,160 to 199
COc1ccc(NC(=O)c2ccc(-c3ccccc3C(F)(F)F)o2)cc1S(=O)(=O)Nc1c(C)cccc1C [Compound 1162],< 10,123 to 159

# Results, then the compound that gave them:
EC50 [µM],Emax [%],SMILES
< 10,200 to 300,COc1ccc(NC(=O)c2cccc3ccoc23)cc1S(=O)(=O)Nc1c(C)cccc1C [Compound 1094]
10 to 20,200 to 300,COc1ccc(NC(=O)c2cccc(C#N)c2Cl)cc1S(=O)(=O)Nc1c(C)cccc1C [Compound 1100]
10 to 20,160 to 199,COc1ccc(NC(=O)c2cc(C)cs2)cc1S(=O)(=O)Nc1c(C)cccc1C [Compound 1101]
10 to 20,200 to 300,COc1ccc(NC(=O)c2cncc(Br)c2C)cc1S(=O)(=O)Nc1c(C)cccc1C [Compound 1107]
10 to 20,> 300,COc1ccc(NC(=O)c2cn(C)c3ncccc23)cc1S(=O)(=O)Nc1c(C)cccc1C [Compound 1108]
< 10,160 to 199,COc1ccc2oc(C(=O)Nc3ccc(OC)c(S(=O)(=O)Nc4c(C)cccc4C)c3)cc2c1 [Compound 1112]
10 to 20,200 to 300,COc1ccc(NC(=O)c2sc(Br)nc2C)cc1S(=O)(=O)Nc1c(C)cccc1C [Compound 1115]
< 10,160 to 199,COc1ccc(NC(=O)c2csc(-c3ccccc3)n2)cc1S(=O)(=O)Nc1c(C)cccc1C [Compound 1116]
10 to 20,200 to 300,COc1ccc(NC(=O)c2ccc3nc(C)ccc3c2)cc1S(=O)(=O)Nc1c(C)cccc1C [Compound 1118]
< 10,160 to 199,COc1ccc(NC(=O)c2nc3c(C)cccc3s2)cc1S(=O)(=O)Nc1c(C)cccc1C [Compound 1125]
< 10,160 to 199,COc1ccc(NC(=O)c2scc(C)c2Cl)cc1S(=O)(=O)Nc1c(C)cccc1C [Compound 1128]
20 to 100,123 to 159,COc1ccc(NC(=O)c2ccc(Br)nc2F)cc1S(=O)(=O)Nc1c(C)cccc1C [Compound 1131]
< 10,160 to 199,COc1ccc(NC(=O)c2csc(-c3cccs3)n2)cc1S(=O)(=O)Nc1c(C)cccc1C [Compound 1136]
20 to 100,160 to 199,CCc1ncsc1C(=O)Nc1ccc(OC)c(S(=O)(=O)Nc2c(C)cccc2C)c1 [Compound 1137]
< 10,123 to 159,COc1ccc(NC(=O)c2nc(-c3ccccc3)oc2C)cc1S(=O)(=O)Nc1c(C)cccc1C [Compound 1139]
< 10,200 to 300,CCc1ccnc(C(=O)Nc2ccc(OC)c(S(=O)(=O)Nc3c(C)cccc3C)c2)c1 [Compound 1151]
< 10,160 to 199,COc1ccc(NC(=O)c2ccc(-c3ccccn3)s2)cc1S(=O)(=O)Nc1c(C)cccc1C [Compound 1152]
< 10,123 to 159,COc1ccc(NC(=O)c2sc(-c3cccs3)nc2C)cc1S(=O)(=O)Nc1c(C)cccc1C [Compound 1156]
< 10,123 to 159,COc1ccc(NC(=O)c2cc(C)cc(F)c2F)cc1S(=O)(=O)Nc1c(C)cccc1C [Compound 1164]
